{"source": "patent US20230405025A1", "about": "“CANNABINOID-CONTAINING COMPOSITIONS AND USE FOR TREATING AND PREVENTING DISEASES” (priority 2020, published 2023)", "origin": "cited, not measured here", "system": "presbyopic patient", "data": [{"smiles": "CC[C@@H]1C(=O)OC[C@@H]1Cc1cncn1C", "note": "[Pilocarpine, pilocarpine]", "values": [{"measurement": "Tolerability", "setting": "concentrations above 0.5%, side effects red eyes, ocular pain, brow ache, headache", "value": "not tolerated"}, {"measurement": "Distance vision", "setting": "concentrations effective enough to improve reading ability, eye rendered myopic (Gilmartin et al., 1995)", "value": "significant decrease in the eye's distance vision"}, {"measurement": "Effect on accommodation of the eye", "setting": "topical concentrations below 0.5%", "value": "minimal effect in the accommodation of the eye"}]}]}
